# Results taken from patent publication US20220283177A1, “METHOD FOR DETECTING INTERACTION AND AFFINITY BETWEEN LIGAND AND PROTEIN” (DALIAN INSTITUTE OF CHEMICAL PHYSICS, CHINESE ACADEMY OF …, priority 2019, published 2022).
# What was measured:
# CDK9 [1] = biological target: T1, CDK9 (Homo sapiens, UniProt P50750); assay: CA-based SIP, western blotting, SNS-032; assay type: binding; details: 100 μM SNS-032, 293T cell lysate, CA gradient
# Description: The procedure of western blotting was as same as Sample 1.
# CDK9 [2] = biological target: T1, CDK9; assay: Solvent mixture (A.E.A.)-based SIP, western blotting, SNS-032; details: 100 μM SNS-032, 293T cell lysate, high percentage of A.E.A.
# Description: (§1) One portion of the supernatants was used for western blotting analysis and the left portion was used for MS-based quantification.
# GSK-3a = GSK-3a (Homo sapiens, UniProt P49840); assay: Solvent mixture (A.E.A.)-based SIP, quantitative proteomics, SNS-032; details: 100 μM SNS-032, 293T cell lysate, 13% A.E.A. (FIG. 2F)
# Description: as §1
# [3] = withdrawn from clinical trials; cited from earlier work
# NDUFV1 = NDUFV1 (Homo sapiens, UniProt P49821); assay: Affinity evaluation by solvent mixture-based SIP dose response (western blotting)
# Chain of NDUFV1 (P49821 21-464): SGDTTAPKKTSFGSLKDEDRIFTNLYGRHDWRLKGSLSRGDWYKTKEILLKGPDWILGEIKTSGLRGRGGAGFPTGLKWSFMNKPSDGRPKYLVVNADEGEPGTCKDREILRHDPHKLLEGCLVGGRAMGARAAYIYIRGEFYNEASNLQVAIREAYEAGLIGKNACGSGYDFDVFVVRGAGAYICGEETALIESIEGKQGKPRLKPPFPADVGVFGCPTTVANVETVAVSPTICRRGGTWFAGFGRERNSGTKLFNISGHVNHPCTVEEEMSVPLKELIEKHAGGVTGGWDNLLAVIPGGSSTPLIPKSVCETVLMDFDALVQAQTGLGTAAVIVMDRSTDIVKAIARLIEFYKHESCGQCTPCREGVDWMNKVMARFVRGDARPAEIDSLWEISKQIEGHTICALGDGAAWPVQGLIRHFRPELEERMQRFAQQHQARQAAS
# Description: The calculation equation: Y=min+(max−min)/(1+10^((Log EC50−X)*Hill Slope)), Y is the protein abundance, X is the different drug concentrations, min and max are the minimum and maximum values of the corresponding protein abundance on the Y axis, respectively. Hill Slope is the absolute value of the maximum slope of the curve (i.e., the midpoint of the curve).
# T1 sequence (P50750 whole entry): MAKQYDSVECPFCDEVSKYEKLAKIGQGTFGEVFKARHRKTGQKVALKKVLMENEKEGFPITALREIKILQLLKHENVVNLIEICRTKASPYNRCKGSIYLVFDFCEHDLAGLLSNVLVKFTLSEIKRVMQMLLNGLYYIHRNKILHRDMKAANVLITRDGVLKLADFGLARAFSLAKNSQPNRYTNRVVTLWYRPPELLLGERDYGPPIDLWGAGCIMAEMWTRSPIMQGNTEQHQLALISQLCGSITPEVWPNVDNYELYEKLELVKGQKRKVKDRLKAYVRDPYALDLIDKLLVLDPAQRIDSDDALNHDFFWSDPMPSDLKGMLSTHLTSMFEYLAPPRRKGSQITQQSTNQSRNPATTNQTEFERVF
# T1 sequence (O60563 whole entry partner): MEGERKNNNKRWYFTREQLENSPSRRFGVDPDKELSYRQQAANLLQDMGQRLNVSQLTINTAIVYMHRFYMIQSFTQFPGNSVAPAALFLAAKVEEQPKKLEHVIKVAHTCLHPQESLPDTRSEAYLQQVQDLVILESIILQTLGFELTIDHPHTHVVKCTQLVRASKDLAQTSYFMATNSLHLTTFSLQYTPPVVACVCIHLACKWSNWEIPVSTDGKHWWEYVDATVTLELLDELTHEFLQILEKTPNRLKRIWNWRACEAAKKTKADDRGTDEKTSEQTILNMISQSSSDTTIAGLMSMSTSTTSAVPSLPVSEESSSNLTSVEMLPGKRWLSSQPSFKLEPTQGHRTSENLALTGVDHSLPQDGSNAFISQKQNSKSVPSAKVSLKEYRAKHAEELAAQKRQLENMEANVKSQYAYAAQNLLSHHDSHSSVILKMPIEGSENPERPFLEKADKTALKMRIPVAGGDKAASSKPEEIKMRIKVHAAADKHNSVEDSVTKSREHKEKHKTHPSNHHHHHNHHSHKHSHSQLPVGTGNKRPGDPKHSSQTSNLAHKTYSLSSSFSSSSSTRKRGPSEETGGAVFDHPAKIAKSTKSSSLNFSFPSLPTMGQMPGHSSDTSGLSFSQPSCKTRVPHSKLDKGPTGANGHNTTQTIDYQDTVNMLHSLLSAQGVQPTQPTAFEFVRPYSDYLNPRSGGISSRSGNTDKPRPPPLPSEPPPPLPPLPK
# Chain of GSK-3a (P49840 whole entry): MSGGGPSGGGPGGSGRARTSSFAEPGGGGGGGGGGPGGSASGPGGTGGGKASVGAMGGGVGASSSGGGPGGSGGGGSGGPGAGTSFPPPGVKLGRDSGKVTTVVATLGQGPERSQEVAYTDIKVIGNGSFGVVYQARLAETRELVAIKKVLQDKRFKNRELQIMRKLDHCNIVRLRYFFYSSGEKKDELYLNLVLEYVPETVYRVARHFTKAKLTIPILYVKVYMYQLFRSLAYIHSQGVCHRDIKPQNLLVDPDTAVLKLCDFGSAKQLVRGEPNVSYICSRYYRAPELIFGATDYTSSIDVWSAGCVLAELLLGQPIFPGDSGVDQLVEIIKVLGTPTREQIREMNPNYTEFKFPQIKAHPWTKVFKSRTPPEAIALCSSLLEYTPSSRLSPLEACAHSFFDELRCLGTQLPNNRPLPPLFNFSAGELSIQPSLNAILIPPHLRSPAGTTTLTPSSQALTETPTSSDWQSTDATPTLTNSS
stabilization of CDK9 by western blotting (CDK9 [2]),average log 2 FC (H/L normalization ratio) of GSK-3a (GSK-3a),EC50 (NDUFV1) [µM],SMILES,abundance of CDK9 by western blotting (CDK9 [1]),side effects in clinical trials [3]
significant stabilization shifts,1.13,,CC(C)(C)c1cnc(CSc2cnc(NC(=O)C3CCNCC3)s2)o1 [SNS-032],higher as compared with that in the control group,
,,10 to 100,COC1=C2C[C@@H](C)C[C@H](OC)[C@H](O)[C@@H](C)/C=C(\C)[C@H](OC(N)=O)[C@@H](OC)/C=C\C=C(/C)C(=O)NC(=CC1=O)C2=O [geldanamycin],,severe hepatotoxicity
